Laboratory results: patent US5622972A, “Method for treating a mammal infected with respiratory syncytial virus” (priority 1996, dated 1997)
Values joined by “and” are separate entries in the source; they are usually repeats but may differ in a detail not shown here. Equal values may be shown once. Read-outs that look alike come from different tables or passages of the source.

Experiments:
[1] = system: respiratory syncytial virus (RSV A2); test: RSV inhibition assay: tetrazolium (MTT) based cell viability assay in RSV-infected HEp-2 cells (serial dilutions); details: for EC50: human respiratory syncytial virus
From the text: (§1) The tetrazolium based cell viability assay is based upon the ability of mitochondrial dehydrogenase which is present in viable cells to catalyze the reduction of a yellow tetrazolium salt known as MTT [3-(4,5-dimethylthiazol-2-yl)-2,5-diphenylthtiazolium bromide] to a dark blue/purple formazon product, generally as described by K. Rubino et al., J. Virological Methods, 39, 55-67 (1992)
(§2) Formazan is only slightly soluble in aqueous solutions, and therefore appears as dark cell-associated crystals. The crystals may be readily solublized in an organic solvent and the absorbance of the resulting blue/purple solution may be quantified using a multi-well plate spectrophotometer.
RSV infection results in a marked reduction in cell viability and thus a lowered rate of formazan production. […] The measurement of viral growth as a function of cell viability allows the assay to be used for establishing levels of compound cytotoxicity in uninfected cells within the same assay. Thus, the assay provides a rapid colorimetric method for measuring RSV specific cytopathic effect.
(§3) The HEp-2 cells and RSV strain A2 virus which are used in the assay are publicly available and were obtained from the American Tissue Culture Collection. HEp-2 cells correspond to ATCC accession no. CCL32; and Respiratory Syncytial Virus, strain A2 corresponds to ATCC accession no. VR-1302. Respiratory syncytial virus was grown (i.e., multiplied) and titered in HEp-2 cells.
(§4) The RSV inhibition assay was carried out as follows. The assay was performed in 96 well microtiter plates seeded with 2.5×10^4 cells per well. To provide a sufficient number of cells to seed the plates, stock cultures of HEp-2 cells were first grown in tissue culture flasks to about 80-100% confluency. The cell layer was washed with room temperature PBS (without calcium and magnesium) and then trypsinized (JRH Biosciences cat. #59-22877P) in a minimal volume of trypsin solution at 37° C. to detach them from the growth surface. Detached cells were resuspended and carefully dispersed in Minimal Essential Medium (MEM) (JRH Biosciences cat. #210-3510) containing 2% FBS (fetal bovine serum) and the concentration of viable cells was determined by trypan blue exclusion. Cell density was adjusted to 2.5×10^5 viable cells/ml by further dilution in MEM+2% FBS.
(§5) Test compound(s) and positive control (ribavirin) were added and serially diluted in the microtiter plate to the desired concentrations (8 replicates/compound/concentration plus 8 control wells/plate which received no compound).
The cell suspension was divided into a first portion to which respiratory syncytial virus (RSV A2) was added at a multiplicity of infection of 1, and a second portion to which no virus was added. The virus-infected cell suspension was mixed by low speed vortexing and 100 μl of the virus-infected cell suspension was immediately added to half of the wells in the 96 well plate (corresponding to 4 replicates of each compound dilution). 100 μl of the virus-free cell suspension was added to the other half of the wells in the microtiter plate (corresponding to the other 4 replicates for each compound and dilution).
The plates were incubated at 37° C., 5% CO2 for 5 to 6 days.
After the incubation period, MTT (Sigma Chemical Co., St. Louis, Mo., Cat. #M2128) was dissolved in serum free MEM to give a 3 mg/ml solution and 100 μl of MTT solution was added to each well and the plates further incubated for 2 hours at 37° C. The reaction was stopped by aspiration of the media to chemical waste, being careful not to remove the formazan crystals, and 200 μl of isopropanol was added to the wells to dissolve the crystals.

[2] = Cytotoxicity in uninfected HEp-2 cells, single concentration of 200 μM replenished daily for 5 days; assay type: cell-based; details: human, solvent PBS (ribavirin: water)
From the text: as §1
(§6) RSV infection results in a marked reduction in cell viability and thus a lowered rate of formazan production. The assay method gives a very low absorbance value (practically zero) in wells which contain virus-infected cells and no compound or a compound which lacks anti-RSV activity. Compounds which inhibit RSV replication should prevent cell death and will therefore result in an increased intensity of color of the formazan solution. The measurement of viral growth as a function of cell viability allows the assay to be used for establishing levels of compound cytotoxicity in uninfected cells within the same assay. Thus, the assay provides a rapid colorimetric method for measuring RSV specific cytopathic effect.
as §3
(§7) The RSV inhibition assay was carried out as follows. The assay was performed in 96 well microtiter plates seeded with 2.5×10^4 cells per well. […] Detached cells were resuspended and carefully dispersed in Minimal Essential Medium (MEM) (JRH Biosciences cat. #210-3510) containing 2% FBS (fetal bovine serum) and the concentration of viable cells was determined by trypan blue exclusion. […]
The cell suspension was divided into a first portion to which respiratory syncytial virus (RSV A2) was added at a multiplicity of infection of 1, and a second portion to which no virus was added. […] A multiplicity of infection equal to 1 was selected based on the observation this concentration of virus is just sufficient to produce a cytopathic effect that essentially eliminated MTT metabolism in infected, untreated cells during the time course of the assay (determined previously by a viral dilution assay).
(§8) After the incubation period, MTT (Sigma Chemical Co., St. Louis, Mo., Cat. #M2128) was dissolved in serum free MEM to give a 3 mg/ml solution and 100 μl of MTT solution was added to each well and the plates further incubated for 2 hours at 37° C. […] The optical density of the formazan/isopropanol solution from each well was determined using a Dynatech MR5000 multiplate reader at 570 nm with a 630 nm reference. […]

[3] = Cytotoxicity in uninfected HEp-2 cells (MTT), same assay; assay type: cell-based; details: human, hep-2 cells
From the text: as §1, §2, §6, §3, §4, §5
(§9) The cell suspension was divided into a first portion to which respiratory syncytial virus (RSV A2) was added at a multiplicity of infection of 1, and a second portion to which no virus was added. The virus-infected cell suspension was mixed by low speed vortexing and 100 μl of the virus-infected cell suspension was immediately added to half of the wells in the 96 well plate (corresponding to 4 replicates of each compound dilution). 100 μl of the virus-free cell suspension was added to the other half of the wells in the microtiter plate (corresponding to the other 4 replicates for each compound and dilution). A multiplicity of infection equal to 1 was selected based on the observation this concentration of virus is just sufficient to produce a cytopathic effect that essentially eliminated MTT metabolism in infected, untreated cells during the time course of the assay (determined previously by a viral dilution assay).
(§10) The plates were incubated at 37° C., 5% CO2 for 5 to 6 days. […]

[4] = system: HEp-2 cells; test: as above; assay type: cell-based; details: 5 day assay, drug added on day 1, 7200 min
From the text: as §1, §2, §6, §3, §4, §5, §9, §10

[5] = system: respiratory syncytial virus (RSV A2); assay type: cell-based; details: human, hep-2 cells, 120 h, 200 µM
From the text: as §1
RSV infection results in a marked reduction in cell viability and thus a lowered rate of formazan production. The assay method gives a very low absorbance value (practically zero) in wells which contain virus-infected cells and no compound or a compound which lacks anti-RSV activity. […]
as §7, with “follows.” for “follows. The assay was performed in 96 well microtiter plates seeded with 2.5×10^4 cells per well.”
as §8

[6] = cited from earlier work

For `CCCCN1C[C@H](O)[C@@H](O)[C@H](O)[C@H]1CO` [Ex. 6, 1,5-(Butylimino) -1,5-dideoxy-D-glucitol], the EC50 ([1]; HEp-2, 120 h, HEp-2, solvent PBS, 5 day assay, drug replenished daily, read-out: ~EC50) was 45 µM, the EC50 ([1]; HEp-2, 120 h, HEp-2, solvent PBS, 5 day assay, drug replenished on day [number not given], read-out: ~EC50) was 185 µM and the EC50 ([1]; HEp-2, HEp-2, solvent DMSO, 6 day assay, drug added on day 1, extrapolated, read-out: ~EC50) was 250 µM. It also gave an EC50 ([1]; HEp-2, HEp-2, solvent PBS, 6 day assay, drug added on day 1, read-out: ~EC50) of 431 µM, a CTI ([1]; solvent PBS, 5 day assay, drug added on day 1, from extrapolated CC50 and EC50) of 275.5 and a CTI ([1]; solvent PBS, 6 day assay, drug added on day 1, from extrapolated CC50, 7200 min) of 21.8. For the same compound, the cytotoxicity at 120 h, 200 µM [2] was 17%, the CC50 at 120 h ([3]; solvent DMSO, 5 day assay, drug added on day 1) was 100 µM and the CC50 at 120 h ([3]; solvent DMSO, 6 day assay, drug added on day 1, extrapolated) was 365 µM. For the same compound, the CC50 at 120 h ([3]; solvent PBS, 5 day assay, drug added on day 1, extrapolated) was 76200 µM, the CC50 at 120 h ([3]; solvent PBS, 6 day assay, drug added on day 1, extrapolated) was 9400 µM and the CC50 ([4]; solvent DMSO) was 156 µM.
For `NC(=O)c1ncn([C@@H]2O[C@H](CO)[C@@H](O)[C@H]2O)n1` [ribavirin, 1-beta-D-ribofuranosyl-1H-1,2,4-triazole-3-carboxamide], the EC50 ([1]; HEp-2, 120 h, HEp-2, solvent water, 5 day assay, drug replenished daily) was 0.1 µM, the EC50 ([1]; HEp-2, 120 h, HEp-2, solvent water, 5 day assay, drug replenished on day [number not given]) was 2.6 µM and the EC50 ([1]; HEp-2, HEp-2, solvent water, 6 day assay, drug added on day 1) was 19.1 µM. The cytotoxicity at 120 h, 200 µM [2] was 65%, the CC50 at 120 h ([3]; solvent water, 5 day assay, drug added on day 1) was 38.3 µM and the CC50 at 120 h ([3]; solvent water, 5 day assay, drug replenished daily) was 40 µM. The CC50 at 120 h ([3]; solvent water, 5 day assay, drug replenished on day [number not given]) was 20.4 µM, the CC50 at 120 h ([3]; solvent water, 6 day assay, drug added on day 1) was 179 µM and the CC50 ([4]; solvent water) was 32.4 µM and 62.8 µM and 52.4 µM. The “% CELL PROTECTION / % CYTOTOXICITY (CTI)” value [5] was 1.6.
In the case of `CCCCN1CC(OC(C)=O)C(OC(C)=O)C(OC(C)=O)C1COC(C)=O` [Ex. 7, 1,5-(Butylimino)-1,5-dideoxy-D-glucitol, tetraacetate], the “enzymatic conversion in vivo of prodrug” value [6] is given as “enzymatically converted in vivo to the compound of Ex. 6” and the cytotoxicity at 120 h, 200 µM [2] is given as 11%.
In the case of `OCC1C(O)C(O)C(O)CN1CCCc1ccccc1` [compound 43, 1,5-(3-Phenylpropylimino)-1,5-dideoxy-D-glucitol], the cytotoxicity at 120 h, 200 µM [2] is reported as 10%.
